Experimental findings from patent US12234232B2, “Aromatic heterocyclic compound with kinase inhibitory activity” (SHANGHAI ENNOVABIO PHARMACEUTICALS CO., LTD., priority 2018, dated 2025) are described below.

The target of assay [1] is T1, JAK2 (Homo sapiens, UniProt O60674). Put plainly: Cellular JAK2 activity assay: EPO-stimulated STAT5 phosphorylation in TF-1 cells. It counts as cell-based. More on the design: endogenous in cells; host or cells: TF-1 cells (ATCC). The conditions noted are these: EPO (10 U/mL), pSTAT5, read-out: IC50 Cell JAK2.
For assay [2], the target named is T2, JAK1 (Homo sapiens, UniProt P23458). Put plainly: Cellular JAK1 activity assay: IL-6-stimulated STAT3 phosphorylation in TF-1 cells. It counts as cell-based. Also on record: endogenous in cells; host or cells: TF-1 cells (ATCC). Particulars: IL-6 (30 ng/mL), pSTAT3, read-out: IC50 Cell JAK1.
Assay [3] addresses T2, JAK1. Kind of assay: In vitro JAK1 kinase activity assay (HTRF kinEASE TK). The class given is biochemical. More on the design: purchased Thermo Fisher. Particulars: 1.1 μM ATP, 60 minutes, room temperature; read-out: IC50 JAK1 (enzyme activity assay). An outline of the steps: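 HTRF TK assay: 0.5 ng/μl JAK1, 1 μM biotinylated TK peptide, 1.1 μM ATP with MgCl2, MnCl2, DTT, 60 min at room temperature; compounds 10 μM to 0.04 nM, 1% DMSO. Overnight detection with SA-XL665 and TK-antibody; 665/620 ratio to % inhibition, IC50 by 4-parameter fit.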

In assay [4] the target is T1, JAK2. Put plainly: Human whole blood JAK2 activity assay: GM-CSF-induced STAT5 phosphorylation (CD33+ cells). The class given is cell-based. Also on record: endogenous in cells. Particulars: GM-CSF (20 ng/mL), read-out: IC50_JAK2 (GM-CSF/pSTAT5). The protocol: (§1) Compound inhibition of JAK1 and JAK2 activities was measured in human whole blood: inhibition of IL-6-induced STAT1 phosphorylation (CD4+ T cells) and GM-CSF-induced STAT5 phosphorylation (CD33+ cells) in human whole blood were respectively analysized. The experimental procedures are shown as follows:
(§2) 1) Human whole blood was collected into heparinized tubes, and seeded in a 96-well plate at 100 µL/well, and incubated in a cell incubator for 15 minutes.
(§3) 2) Different concentrations of compounds (25 μL/well) were added into desired wells and incubated at 37° C. under 5% CO2 for 30 minutes. The final concentration of DMSO was 0.2%.
(§4) 3) Blood cells were stimulated with recombinant human IL-6 (100 ng/mL) or recombinant human GM-CSF (20 ng/mL) or PBS at 37° C. and 5% CO2 for 20 minutes.
(§5) 4) The blood was treated with pre-warmed 1× Lysis/Fixing Buffer (BD Phosflow) at 37° C. for 10 minutes to lyse erythrocytes and fix leukocytes.
(§6) 5) After the cells were permeabilized with pre-cooled buffer (Perm buffer III) on ice for 60 minutes, anti-pSTAT1 and anti-CD4 antibodies (IL-6 stimulated samples) or anti-pSTAT5 and anti-CD33 antibodies (GM-CSF stimulated samples) were used to stain the samples at 4° C. for 60 minutes.
(§7) 7) The cells were washed twice and resuspended in buffer for FACS analysis (Thermo Attune NxT).

The target in assay [5] is T2, JAK1. Put plainly: Human whole blood JAK1 activity assay: IL-6-induced STAT1 phosphorylation (CD4+ T cells). The class given is cell-based. More on the design: endogenous in cells. The conditions noted are these: IL-6 (100 ng/mL), read-out: IC50_JAK1 (IL6/pSTAT1). On the procedure:
as §1, §2, §3, §4, §5, §6, §7

Assay [6] has as its target T1, JAK2. Put plainly: In vitro JAK2 kinase activity assay (HTRF kinEASE TK). It counts as biochemical. Particulars: 2.7 μM ATP, 25 minutes, room temperature; read-out: IC50 JAK2 (enzyme activity assay). More on the design: purchased Carna Biosciences. An outline of the steps:
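HTRF kinase reaction with 0.001 ng/μl recombinant human JAK2, 1 μM biotinylated TK substrate peptide, 2.7 μM ATP, 5 mM MgCl2, 1 mM DTT, 25 min at room temperature; compounds 10 μM–0.04 nM, 4-fold steps, duplicate, 1% DMSO. Detection overnight; 665/620 ratio converted to % inhibition, IC50 by 4-parameter fit.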
Background: In TR-FRET formats the signal depends on donor and acceptor labels being close together.

T2 sequence (P23458 whole entry): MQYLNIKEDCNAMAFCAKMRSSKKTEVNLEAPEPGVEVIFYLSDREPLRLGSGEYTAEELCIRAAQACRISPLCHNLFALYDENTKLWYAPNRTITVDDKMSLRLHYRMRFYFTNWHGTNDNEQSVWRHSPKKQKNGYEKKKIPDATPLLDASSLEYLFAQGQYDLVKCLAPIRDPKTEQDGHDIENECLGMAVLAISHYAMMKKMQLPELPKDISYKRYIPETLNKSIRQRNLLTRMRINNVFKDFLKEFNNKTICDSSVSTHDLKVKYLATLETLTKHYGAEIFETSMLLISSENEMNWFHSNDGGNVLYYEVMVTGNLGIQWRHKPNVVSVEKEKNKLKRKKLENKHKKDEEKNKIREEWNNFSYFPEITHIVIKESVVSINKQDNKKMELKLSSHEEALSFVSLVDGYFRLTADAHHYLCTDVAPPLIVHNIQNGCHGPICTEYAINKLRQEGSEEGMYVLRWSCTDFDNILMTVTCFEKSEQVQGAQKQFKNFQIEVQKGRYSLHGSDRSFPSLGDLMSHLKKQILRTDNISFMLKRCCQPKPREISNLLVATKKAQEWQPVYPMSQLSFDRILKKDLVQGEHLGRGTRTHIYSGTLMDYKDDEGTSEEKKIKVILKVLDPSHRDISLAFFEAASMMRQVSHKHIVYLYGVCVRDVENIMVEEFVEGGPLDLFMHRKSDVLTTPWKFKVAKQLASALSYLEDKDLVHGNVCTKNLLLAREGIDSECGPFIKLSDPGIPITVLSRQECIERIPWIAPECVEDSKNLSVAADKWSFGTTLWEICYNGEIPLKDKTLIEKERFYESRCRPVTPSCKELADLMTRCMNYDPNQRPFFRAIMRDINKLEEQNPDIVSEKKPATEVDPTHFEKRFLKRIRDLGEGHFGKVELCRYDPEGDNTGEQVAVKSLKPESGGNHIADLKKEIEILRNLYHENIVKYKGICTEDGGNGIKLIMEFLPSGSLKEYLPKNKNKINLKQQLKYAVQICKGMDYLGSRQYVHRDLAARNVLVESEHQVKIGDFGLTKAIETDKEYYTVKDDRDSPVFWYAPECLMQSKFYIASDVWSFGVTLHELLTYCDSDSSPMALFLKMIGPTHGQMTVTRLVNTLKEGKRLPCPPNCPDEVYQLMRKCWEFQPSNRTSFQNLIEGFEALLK
T1 sequence (O60674 whole entry): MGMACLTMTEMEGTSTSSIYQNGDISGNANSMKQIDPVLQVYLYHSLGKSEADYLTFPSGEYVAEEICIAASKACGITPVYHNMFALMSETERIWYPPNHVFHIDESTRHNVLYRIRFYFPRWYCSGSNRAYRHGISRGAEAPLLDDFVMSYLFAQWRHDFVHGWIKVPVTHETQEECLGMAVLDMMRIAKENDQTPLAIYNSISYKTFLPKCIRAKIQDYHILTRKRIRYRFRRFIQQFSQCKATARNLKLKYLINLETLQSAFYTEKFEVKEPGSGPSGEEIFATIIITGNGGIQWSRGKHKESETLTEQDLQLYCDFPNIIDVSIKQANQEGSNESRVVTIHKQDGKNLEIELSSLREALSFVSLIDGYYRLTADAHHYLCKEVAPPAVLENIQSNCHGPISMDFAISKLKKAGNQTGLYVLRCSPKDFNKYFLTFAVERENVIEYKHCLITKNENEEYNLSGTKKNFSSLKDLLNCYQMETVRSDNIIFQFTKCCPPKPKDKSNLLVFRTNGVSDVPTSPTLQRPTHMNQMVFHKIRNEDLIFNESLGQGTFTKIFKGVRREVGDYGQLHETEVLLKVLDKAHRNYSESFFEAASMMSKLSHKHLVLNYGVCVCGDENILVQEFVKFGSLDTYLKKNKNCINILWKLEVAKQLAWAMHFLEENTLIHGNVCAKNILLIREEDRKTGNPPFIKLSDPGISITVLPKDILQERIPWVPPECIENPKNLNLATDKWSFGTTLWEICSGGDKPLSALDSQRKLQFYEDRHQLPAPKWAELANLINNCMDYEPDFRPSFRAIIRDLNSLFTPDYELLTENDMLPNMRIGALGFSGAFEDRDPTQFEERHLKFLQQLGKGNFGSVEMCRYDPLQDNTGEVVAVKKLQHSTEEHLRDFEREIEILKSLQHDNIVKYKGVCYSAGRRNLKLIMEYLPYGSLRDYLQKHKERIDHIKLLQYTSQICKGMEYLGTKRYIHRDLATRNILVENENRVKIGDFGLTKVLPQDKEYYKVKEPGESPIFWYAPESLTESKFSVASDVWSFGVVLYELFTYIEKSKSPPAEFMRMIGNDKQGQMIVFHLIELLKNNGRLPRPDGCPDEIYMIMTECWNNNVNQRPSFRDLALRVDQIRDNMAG

As for `CC[C@H](C(=O)Nc1nccc2c(-c3nc(Nc4cn(C)nc4OC)ncc3C)c[nH]c12)N1CCN(C)CC1` [Example 4, (R)—N-(3-(2-((3-Methoxy-1-methyl-1H-pyrazol-4-yl)amino)-5-methylpyrimidin-4-yl)-1H-pyrrolo[2,3-c]pyridin-7-yl)-2-(4-methylpiperazin-1-yl)butanamide], the IC50 at JAK2 [1] was less than 10000 nM; at JAK1 [2] it was less than 100 nM; at JAK1 [3] it was less than 5 nM; on JAK2 [4], greater than 20000 nM; at JAK1 [5], less than 500 nM; on JAK2 [6], less than 100 nM.
